Assay results from ChEMBL document CHEMBL4339212, “Novel 7-formyl-naphthyridyl-ureas derivatives as potential selective FGFR4 inhibitors: Design, synthesis, and biological activity studies” (Bioorg Med Chem, 2019).

Columns and labels:
[1] = target: Fibroblast growth factor receptor 1 (Homo sapiens, UniProt P11362); assay: Inhibition of FGFR1 (unknown origin) incubated for 60 mins by caliper microfluidic mobility shift technology based assay
[2] = test system: SK-HEP1; assay: Antiproliferative activity against human SKHEP1 cells without FGFR4 gene amplification assessed as inhibition of cell proliferation incubated for 72 hrs by CellTiter-Glo method; assay type: functional, cell-based; conditions: SK-HEP1, 72 h
[3] = test system: Hep 3B2; assay: cells; conditions: Homo sapiens, Hep3B, 72 h
[4] = test system: Huh-7; assay: cells; conditions: Homo sapiens, Huh-7, 72 h
[5] = AUC in Sprague-Dawley rat at 5 mg/kg, ig measured after 5 mins to 24 hrs by LC-MS analysis; assay type: ADME, organism-based; set-up: dose 5 mg/kg, time 0.083-24 hr, route […]; conditions: in vivo, po
[6] = Half life in Sprague-Dawley rat at 5 mg/kg, ig measured after 5 mins to 24 hrs by LC-MS analysis; assay type: ADME, organism-based; conditions: in vivo, po
[7] = Mean residence time in Sprague-Dawley rat at 5 mg/kg, ig measured after 5 mins to 24 hrs by LC-MS analysis; assay type: ADME, organism-based; conditions: in vivo, po
[8] = Cmax in Sprague-Dawley rat at 5 mg/kg, ig measured after 5 mins to 24 hrs by LC-MS analysis; assay type: ADME, organism-based; set-up: dose 5 mg/kg, route […]; conditions: in vivo, po
[9] = test system: Hep 3B2; assay: Antitumor activity against human Hep3B cells xenografted in nude BALB/c mouse assessed as inhibition of tumor growth at 10 mg/kg bid for 14 days and measured twice per week relative to untreated control; assay type: functional; conditions: 336 h, read-out: TGI
[10] = test system: Huh-7; assay: Antitumor activity against human HuH7 cells xenografted in nude BALB/c mouse assessed as inhibition of tumor growth at 30 mg/kg bid for 14 days and measured twice per week relative to untreated control; assay type: functional; conditions: Huh-7, 336 h, read-out: TGI

Chain of Fibroblast growth factor receptor 1 (P11362 whole entry): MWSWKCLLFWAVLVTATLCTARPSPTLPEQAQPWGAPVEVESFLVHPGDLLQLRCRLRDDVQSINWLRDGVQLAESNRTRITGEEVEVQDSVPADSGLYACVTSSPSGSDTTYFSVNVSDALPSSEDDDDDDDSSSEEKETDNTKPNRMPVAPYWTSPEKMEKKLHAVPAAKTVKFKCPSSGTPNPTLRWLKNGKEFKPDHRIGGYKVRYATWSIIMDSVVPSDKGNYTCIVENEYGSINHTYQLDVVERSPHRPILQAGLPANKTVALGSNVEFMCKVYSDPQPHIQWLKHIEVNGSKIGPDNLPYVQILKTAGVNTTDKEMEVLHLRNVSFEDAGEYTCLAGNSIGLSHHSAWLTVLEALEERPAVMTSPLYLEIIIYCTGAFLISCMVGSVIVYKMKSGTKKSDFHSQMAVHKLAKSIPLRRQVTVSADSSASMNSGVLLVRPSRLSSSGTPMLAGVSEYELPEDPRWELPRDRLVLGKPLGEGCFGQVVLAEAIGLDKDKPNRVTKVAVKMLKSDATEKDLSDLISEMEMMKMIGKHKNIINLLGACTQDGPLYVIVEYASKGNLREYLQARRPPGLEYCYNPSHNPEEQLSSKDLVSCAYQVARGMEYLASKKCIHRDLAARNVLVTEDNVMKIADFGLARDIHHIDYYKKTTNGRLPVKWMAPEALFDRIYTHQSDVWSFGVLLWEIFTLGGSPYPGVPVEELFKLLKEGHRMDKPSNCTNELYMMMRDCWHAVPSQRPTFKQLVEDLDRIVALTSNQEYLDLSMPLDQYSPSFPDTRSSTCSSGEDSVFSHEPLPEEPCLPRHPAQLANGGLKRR

Compound | IC50 [1] | IC50 [2] | IC50 [3] | IC50 [4] | AUC [5] | half-life [6] | MRT [7] | Cmax [8] | inhibition in vivo at 10 mg/kg [9] | inhibition in vivo at 30 mg/kg [10]
COCCNc1cc(NC(=O)N2CCCc3cc(CN4CCOCC4=O)c(C=O)nc32)ncc1C#N | > 10000 nM | > 10000 nM | 8.9 nM | 17.3 nM |  |  |  |  |  | 
CO[C@@H]1CCC[C@H]1Nc1cc(NC(=O)N2CCCc3cc(CN4CCOCC4=O)c(C=O)nc32)ncc1C#N | > 10000 nM | > 10000 nM | 1 nM | 2.7 nM |  |  |  |  |  | 
COC[C@@H]1CCCN1c1cc(NC(=O)N2CCCc3cc(CN4CCOCC4=O)c(C=O)nc32)ncc1C#N | > 10000 nM | > 10000 nM | 22.9 nM | 65.3 nM |  |  |  |  |  | 
COC[C@@H](C)Oc1cc(NC(=O)N2CCCc3cc(CN4CCCCOC4=O)c(C=O)nc32)ncc1C#N | > 10000 nM | > 10000 nM | 2.2 nM | 4.6 nM |  |  |  |  |  | 
COCCNc1cc(NC(=O)N2CCCc3cc(CN4CC[C@H](OC)C4=O)c(C=O)nc32)ncc1C#N | > 10000 nM | > 10000 nM | 2.3 nM | 9 nM | 11300 ng·h/mL |  |  |  |  | 
CN(C)C1CCN(c2cc(NC(=O)N3CCCc4cc(CN5CCOCC5=O)c(C=O)nc43)ncc2C#N)C1 (stereo not drawn) | > 10000 nM | > 10000 nM | 93.8 nM | 297 nM |  |  |  |  |  | 
CO[C@@H]1CCN(Cc2cc3c(nc2C=O)N(C(=O)Nc2cc(N[C@@H]4CCOC4)c(C#N)cn2)CCC3)C1=O | > 10000 nM | > 10000 nM | 1.8 nM | 5.4 nM |  |  |  |  |  | 
CO[C@H]1CCN(c2cc(NC(=O)N3CCCc4cc(CN5C(=O)OC[C@@H]5C)c(C=O)nc43)ncc2C#N)C1 | > 10000 nM | > 10000 nM | 39.3 nM | 34.6 nM |  |  |  |  |  | 
CO[C@@H]1CCN(c2cc(NC(=O)N3CCCc4cc(CN5CCOC5=O)c(C=O)nc43)ncc2C#N)C1 | > 10000 nM | > 10000 nM | 9.9 nM | 10.2 nM |  |  |  |  |  | 
CO[C@H]1CCN(c2cc(NC(=O)N3CCCc4cc(CN5CCOC5=O)c(C=O)nc43)ncc2C#N)C1 | > 10000 nM | > 10000 nM | 38.7 nM | 29.6 nM |  |  |  |  |  | 
N#Cc1cnc(NC(=O)N2CCCc3cc(CN4CCOCC4=O)c(C=O)nc32)cc1S[C@@H]1CCOC1 | > 10000 nM | > 10000 nM | 22.7 nM | 50.1 nM | 6780 ng·h/mL |  |  |  |  | 
N#Cc1cnc(NC(=O)N2CCCc3cc(CN4CCOCC4=O)c(C=O)nc32)cc1S[C@H]1CCOC1 | > 10000 nM | > 10000 nM | 14.5 nM | 36.1 nM | 1950 ng·h/mL |  |  |  |  | 
COc1ccccc1Oc1cc(NC(=O)N2CCCc3cc(CN4CCOCC4=O)c(C=O)nc32)ncc1C#N | > 10000 nM | > 10000 nM | 46 nM | 69 nM |  |  |  |  |  | 
COCCNc1cc(NC(=O)N2CCCc3cc(CN4CC[C@@H](OC)C4=O)c(C=O)nc32)ncc1C#N | > 10000 nM | > 10000 nM | 1.9 nM | 8.3 nM | 12300 ng·h/mL |  |  |  |  | 
N#Cc1cnc(NC(=O)N2CCCc3cc(CN4CCCCOC4=O)c(C=O)nc32)cc1N[C@H]1CCOC1 | > 10000 nM | > 10000 nM | 3.7 nM | 7.2 nM |  |  |  |  |  | 
COc1ccncc1Nc1cc(NC(=O)N2CCCc3cc(CN4CCOCC4=O)c(C=O)nc32)ncc1C#N | > 10000 nM | > 10000 nM | 69 nM | 20.7 nM |  |  |  |  |  | 
COC[C@@H](C)Oc1cc(NC(=O)N2CCCc3cc(CN4CCOCC4=O)c(C=O)nc32)ncc1C#N | > 10000 nM | > 10000 nM | 2.9 nM | 7.8 nM |  |  |  |  |  | 
COC[C@H](C)Nc1cc(NC(=O)N2CCCc3cc(CN4CC[C@H](OC)C4=O)c(C=O)nc32)ncc1C#N | > 10000 nM | > 10000 nM | 13.6 nM | 40.5 nM |  |  |  |  |  | 
CO[C@H]1CCOC[C@@H]1Oc1cc(NC(=O)N2CCCc3cc(CN4CCOCC4=O)c(C=O)nc32)ncc1C#N | > 10000 nM | > 10000 nM | 10.9 nM | 40.8 nM |  |  |  |  |  | 
COCCOc1cc(NC(=O)N2CCCc3cc(CN4CCOCC4=O)c(C=O)nc32)ncc1C#N | > 10000 nM | > 10000 nM | 27.7 nM | 51.8 nM |  |  |  |  |  | 
N#Cc1cnc(NC(=O)N2CCCc3cc(CN4CCCCOC4=O)c(C=O)nc32)cc1N[C@@H]1CCOC1 | > 10000 nM | > 10000 nM | 2.3 nM | 4.9 nM |  |  |  |  |  | 
CO[C@@H]1CCN(c2cc(NC(=O)N3CCCc4cc(CN5C(=O)OC[C@@H]5C)c(C=O)nc43)ncc2C#N)C1 | > 10000 nM | > 10000 nM | 13.3 nM | 11.8 nM |  |  |  |  |  | 
CO[C@H]1CCN(c2cc(NC(=O)N3CCCc4cc(CN5CCOCC5=O)c(C=O)nc43)ncc2C#N)C1 | > 10000 nM | > 10000 nM | 24.9 nM | 27.5 nM | 14700 ng·h/mL | 1.2 h | 2.6 h | 3360 ng/mL |  | 
COCCSc1cc(NC(=O)N2CCCc3cc(CN4CCOCC4=O)c(C=O)nc32)ncc1C#N | > 10000 nM | > 10000 nM | 20.8 nM | 32.2 nM |  |  |  |  |  | 
COCCNc1cc(NC(=O)N2CCCc3cc(CN4CCN(C)CC4=O)c(C=O)nc32)ncc1C#N [FGF401] |  |  | 8.8 nM | 16.3 nM |  |  |  |  | 85.9% | 52.5%
